Data as given in patent EP4245293B1, “USE OF SUGAR AMINES AS COMPLEXING AGENTS” (Clariant International Ltd, priority 2022, dated 2023).

Key:
Format in all cases: physicochemical
[1] = Confirmation of complex formation with single chelants, Fe3+ ions
[2] = Confirmation of complex formation with single chelants, Cu2+ ions
[3] = Complexing ability test of Dimethylglucamine vs. Aminomethylpropanol; details: for Result: Cu^2+ solution 0,2 mmol/L, each chelant at 0.6 mmol/L, observed color and precipitate
Experimental: The relative complexing ability of the chelant Dimethylglucamine is evaluated vs. Aminomethylpropanol by observing color changes and precipitate formation. In particular Aminomethylpropanol was chosen since in the previous test c) it was shown that Aminomethylpropanol makes complex with Copper that differs in color of Copper complex with Dimethylglucamine. Therefore, it is possible to evaluate the strength of complexation of Aminomethylpropanol and Dimethylglucamine when both chelants are present in solution of Copper^2+ ions by observing the color of solution. To Cu^2+ solutions (c = 0,2 mmol/L), solutions of chelants are added: • Aminomethylpropanol at 0,6 mmol/L • Dimethylglucamine at 0,6 mmol/L • Aminomethylpropanol at 0,6 mmol/L + Dimethylglucamine 0,6 mmol/L

[4] = Complexing ability test vs. EDTA (color changes and precipitate formation); details: for Result: Fe^3+ solution 0,2 mmol/L, observed color and precipitate; for chelating strength for Iron^3+ ions relative to EDTA: both EDTA and chelant present, judged from the colored complex formed
Experimental: The relative complexing ability of the chelant is evaluated vs. EDTA by observing color changes and precipitate formation.
To Fe^3+ and Cu^2+ solutions (c = 0,2 mmol/L), solutions of chelants are added: • Na4EDTA at 0,4 mmol/L • Na4EDTA at 2 mmol/L • Only chelant (Dimethylglucamine or Piroctone Olamine) at 0,6 mmol/L • Chelant (Dimethylglucamine or Piroctone Olamine) at 0,6 mmol/L + Na4EDTA 0,4 mmol/L • Chelant (Dimethylglucamine or Piroctone Olamine) at 0,6 mmol/L + Na4EDTA 2 mmol/L

[5] = Fe^3+ solution 0,2 mmol/L with single chelant
[6] = Fe^3+ solution 0,2 mmol/L, single chelant added at c=0,2 mmol/L, observed color and precipitate
[7] = Cu^2+ solution 0,2 mmol/L with single chelant
[8] = Cu^2+ solution 0,2 mmol/L, single chelant added at c=0,2 mmol/L, observed color and precipitate

pH [1, 5] | pH [2, 7] | pH [1] | pH [2] | Structure (SMILES) | Result [1, 6] | Result [2, 8] | Result [3] | complexes formed with Iron^3+ ions [1] | complexes formed with Copper^2+ ions [2] | Result ([4]; only chelant at 0,6 mmol/L) | chelating strength for Iron^3+ ions relative to EDTA [4] | complex formed in presence of Aminomethylpropanol and Cu^2+ ions ([3]; both chelants present at 0,6 mmol/L) | Result [1] | Result [2] | Result ([4]; EDTA 0.4 mmol/L, alone or with chelant at 0,6 mmol/L) | Result ([4]; EDTA 2 mmol/L, alone or with chelant at 0,6 mmol/L)
4.0 | 9.2 | – | – | CC(C)(N)CO [Aminomethylpropanol] | Clear solution with distinct orange precipitate | Clear solution with distinct brown precipitate | Clear solution with distinct brown precipitate | – | – | – | – | – | – | – | – | –
3.4 | 6.5 | – | – | CN(C)C[C@H](O)[C@@H](O)[C@H](O)[C@H](O)CO [Dimethylglucamine, N,N-dimethylglucamine] | Clear solution with distinct orange precipitate | Clear, light blue solution | Clear light blue solution | distinct orange complexes | blue complexes | Clear solution with distinct orange precipitate | stronger chelating agent than EDTA | distinct blue complex of Dimethylglucamine is formed instead of brown complex of Aminomethylpropanol and Cu^2+ ions | – | – | – | –
– | – | 10.6 | 10.0 | O=C(O)CN(CCN(CC(=O)O)CC(=O)O)CC(=O)O [EDTA, ethylenediaminetetraacetic acid] | – | – | – | – | – | – | – | – | Clear, very slightly yellowish solution | Clear, light blue solution | Clear, very slightly yellowish solution | Clear, very slightly yellowish solution
3.3 | 4.6 | – | – | NCC(=O)O [Glycine] | Clear solution with distinct orange precipitate | Clear, slightly bluish solution | – | – | – | – | – | – | – | – | – | –
3.8 | 8.3 | – | – | Cc1cc(CC(C)CC(C)(C)C)n(O)c(=O)c1.NCCO (stereo not shown) [Piroctone Olamine] | Turbid solution with distinct orange precipitate | Turbid, light blue solution | – | – | – | Turbid yellowish solution with distinct orange precipitate | stronger than EDTA | – | – | – | – | –
